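Assay format: 96-well plates, 48-hour exposure. GI50: concentration for 50% inhibition of growth.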 Activity calls are given as the source filed them. Cut-off read from the data, not from the text of the source: active = GI50 up to about 1.1 µM and inactive = higher.
What was measured:
Assay in all cases: growth of human tumour cells (NCI), 48 h
UO-31 = test system: UO-31
TK-10 = test system: TK-10
Malme-3M = test system: Malme-3M
SK-MEL-5 = test system: SK-MEL-5
RPMI-8226 = test system: RPMI-8226
HOP-92 = test system: HOP-92
K562 = test system: K562
SK-MEL-28 = test system: SK-MEL-28
786-0 = test system: 786-0
HCT-116 = test system: HCT-116
SF-539 = test system: SF-539
OVCAR-3 = test system: OVCAR-3
A549 = test system: A549
ACHN = test system: ACHN
SR = test system: SR
CCRF-CEM = test system: CCRF-CEM

In the case of `OC[C@@H]1CC#C/C=C\C#CC[C@@H]1CO`, the GI50 (UO-31) is reported as > 100 µM (inactive), the GI50 (TK-10) is reported as > 100 µM (inactive) and the GI50 (Malme-3M) is reported as > 100 µM (inactive). For the same compound, the GI50 (SK-MEL-5) was > 100 µM (inactive), the GI50 (RPMI-8226) was > 100 µM (inactive) and the GI50 (HOP-92) was < 0.01 µM (active). For the same compound, the GI50 (K562) was > 100 µM (inactive), the GI50 (SK-MEL-28) was > 100 µM (inactive) and the GI50 (786-0) was > 100 µM (inactive). The GI50 (HCT-116) was > 100 µM (inactive), the GI50 (SF-539) was > 100 µM (inactive) and the GI50 (OVCAR-3) was > 100 µM (inactive).
For `Cc1ccc(NC(=O)SCCC(=O)O)cc1NC(=O)SCCC(=O)O`, the GI50 (UO-31) was > 100 µM (inactive), the GI50 (A549) was > 100 µM (inactive) and the GI50 (ACHN) was > 100 µM (inactive). For the same compound, the GI50 (TK-10) was > 100 µM (inactive), the GI50 (RPMI-8226) was > 100 µM (inactive) and the GI50 (SR) was > 100 µM (inactive). For the same compound, the GI50 (K562) was > 100 µM (inactive), the GI50 (SK-MEL-28) was > 100 µM (inactive) and the GI50 (786-0) was > 100 µM (inactive). The GI50 (CCRF-CEM) was > 100 µM (inactive), the GI50 (HCT-116) was > 100 µM (inactive) and the GI50 (SF-539) was > 100 µM (inactive). For the same compound, the GI50 (OVCAR-3) was > 100 µM (inactive).
In the case of `CCOC(=O)/C(=C/c1ccc(OC)c(OC)c1)C(=O)c1ccccc1`, the GI50 (UO-31) is reported as 14.4 µM (inactive), the GI50 (A549) is reported as 28.2 µM (inactive) and the GI50 (ACHN) is reported as 27.9 µM (inactive). The GI50 (TK-10) was 26.4 µM (inactive), the GI50 (Malme-3M) was 76.6 µM (inactive) and the GI50 (SK-MEL-5) was 14.3 µM (inactive). The GI50 (RPMI-8226) was 10.5 µM (inactive), the GI50 (K562) was 10.3 µM (inactive) and the GI50 (SK-MEL-28) was 13.5 µM (inactive). For the same compound, the GI50 (786-0) was > 100 µM (inactive), the GI50 (CCRF-CEM) was 9.64 µM (inactive) and the GI50 (OVCAR-3) was 18 µM (inactive).
With `C=CCNC(=S)N1c2ccccc2NC(=O)CC1C` (stereo unspecified) the GI50 (UO-31) was > 100 µM (inactive), the GI50 (A549) was > 100 µM (inactive) and the GI50 (ACHN) was > 100 µM (inactive). For the same compound, the GI50 (TK-10) was > 100 µM (inactive), the GI50 (Malme-3M) was > 100 µM (inactive) and the GI50 (SK-MEL-5) was > 100 µM (inactive). For the same compound, the GI50 (RPMI-8226) was > 100 µM (inactive), the GI50 (SR) was > 100 µM (inactive) and the GI50 (K562) was > 100 µM (inactive). For the same compound, the GI50 (SK-MEL-28) was > 100 µM (inactive), the GI50 (786-0) was > 100 µM (inactive) and the GI50 (CCRF-CEM) was > 100 µM (inactive). The GI50 (HCT-116) was > 100 µM (inactive), the GI50 (SF-539) was > 100 µM (inactive) and the GI50 (OVCAR-3) was > 100 µM (inactive).
For `C/N=C(\SC)N(C)c1nc(=[N+](C)C)ss1.[O-][Cl+3]([O-])([O-])[O-]`, the GI50 (UO-31) was 42.2 µM (inactive), the GI50 (A549) was > 100 µM (inactive) and the GI50 (ACHN) was > 100 µM (inactive). For the same compound, the GI50 (TK-10) was > 100 µM (inactive), the GI50 (SK-MEL-5) was 7.21 µM (inactive) and the GI50 (SR) was 56 µM (inactive). For the same compound, the GI50 (HOP-92) was > 100 µM (inactive), the GI50 (K562) was 10.7 µM (inactive) and the GI50 (SK-MEL-28) was > 100 µM (inactive). For the same compound, the GI50 (786-0) was > 100 µM (inactive), the GI50 (CCRF-CEM) was 4.17 µM (inactive) and the GI50 (HCT-116) was > 100 µM (inactive).
In the case of `Cc1[nH]c2ccccc2c1CC/C(=N\Nc1ccccc1)c1ccccc1`, the GI50 (UO-31) is reported as > 100 µM (inactive), the GI50 (A549) is reported as > 100 µM (inactive) and the GI50 (ACHN) is reported as > 100 µM (inactive). For the same compound, the GI50 (TK-10) was > 100 µM (inactive), the GI50 (Malme-3M) was > 100 µM (inactive) and the GI50 (SK-MEL-5) was > 100 µM (inactive). The GI50 (RPMI-8226) was > 100 µM (inactive), the GI50 (K562) was > 100 µM (inactive) and the GI50 (SK-MEL-28) was > 100 µM (inactive). The GI50 (786-0) was > 100 µM (inactive), the GI50 (CCRF-CEM) was > 100 µM (inactive) and the GI50 (HCT-116) was > 100 µM (inactive). The GI50 (SF-539) was > 100 µM (inactive) and the GI50 (OVCAR-3) was > 100 µM (inactive).
`COC(=O)NN1C(C)=C(C(=O)OC)C2(C#N)C(C(=O)OC)=C(C)N(NC(=O)OC)C12N` (stereo unspecified) was tested, and the GI50 (UO-31) was > 100 µM (inactive), the GI50 (A549) was > 100 µM (inactive) and the GI50 (ACHN) was > 100 µM (inactive). For the same compound, the GI50 (TK-10) was > 100 µM (inactive), the GI50 (Malme-3M) was > 100 µM (inactive) and the GI50 (RPMI-8226) was > 100 µM (inactive). The GI50 (HOP-92) was > 100 µM (inactive), the GI50 (K562) was > 100 µM (inactive) and the GI50 (SK-MEL-28) was > 100 µM (inactive). The GI50 (786-0) was > 100 µM (inactive), the GI50 (CCRF-CEM) was > 100 µM (inactive) and the GI50 (HCT-116) was > 100 µM (inactive). For the same compound, the GI50 (SF-539) was > 100 µM (inactive).
With `C#CC[C@]12CC(=O)CC[C@H]1CC(=O)C2` the GI50 (UO-31) was > 100 µM (inactive), the GI50 (A549) was > 100 µM (inactive) and the GI50 (ACHN) was > 100 µM (inactive). The GI50 (TK-10) was > 100 µM (inactive), the GI50 (Malme-3M) was > 100 µM (inactive) and the GI50 (SK-MEL-5) was > 100 µM (inactive). The GI50 (RPMI-8226) was > 100 µM (inactive), the GI50 (SR) was > 100 µM (inactive) and the GI50 (K562) was > 100 µM (inactive). For the same compound, the GI50 (SK-MEL-28) was > 100 µM (inactive), the GI50 (786-0) was > 100 µM (inactive) and the GI50 (CCRF-CEM) was > 100 µM (inactive). For the same compound, the GI50 (HCT-116) was > 100 µM (inactive), the GI50 (SF-539) was > 100 µM (inactive) and the GI50 (OVCAR-3) was > 100 µM (inactive).

— ChEMBL document CHEMBL1201862, “PubChem BioAssay data set” (2004)
